From publication PMC6315057, “Industrial scale high-throughput screening delivers multiple fast acting macrofilaricides” (Nature Communications, 2019) come the findings set out here.

Data set [1] relates to Wolbachia in C6/36 (wAlbB) cells. Description: Secondary concentration response HTS (IC50) anti-Wolbachia screen in C6/36 (wAlbB) insect cells. The class given is cell-based, Wolbachia pipientis wAlbB (in Aedes albopictus C6/36 cells). The note with it: Wolbachia, 168 h, 7-day incubation, 10-point concentration range. The protocol: Initially C6/36 (wAlbB) cells (insect cells stably infected with the Wolbachia target) from a single cryopreserved batch were recovered over 7 days prior to plating into 384-well assay ready plates (containing the test compounds), using a semi-automated process allowing for daily batches of ~150 plates, set up 4 days per week for 8 weeks. After a 7-day incubation period with the test compounds the plates were moved into the second fully automated stage (using the Agilent Technologies BioCel system) involving formaldehyde fixation, DNA staining of the insect cell nuclei (Hoechst) for toxicity analysis and antibody staining specific to the intracellular Wolbachia (wBmPAL primary antibody and far-red secondary antibody). In the final stage the fixed and stained plates from stage 2 were processed through automated data acquisition (High Res Biosolutions system, incorporating EnVision™ and acumen® plate readers). This industry standardised assay was then used to screen AstraZeneca’s full library of 1.3 million compounds within 10 weeks. In total this HTS included 30 × 3 week assays covering 3835 × 384-well plates. This primary HTS generated 20,255 hits defined as >80% reduction in Wolbachia with <60% toxicity to the host insect cell (eliminating false positives). This represents an overall hit rate of 1.56%. These compounds are depicted in chemical space in Fig. 2 (black points)[21].
The mosquito (Aedes albopictus) derived cell line C6/36 (ATCC® CRL 1660), stably infected with Wolbachia pipientis wAlbB (C6/36(wAlbB)), was maintained in Leibovitz L15 medium containing 2 mM L-glutamine, 1% nonessential amino acids, 2% tryptose phosphate broth and 20% heat-inactivated foetal bovine serum (FBS) at 26 °C[18]. This screen exclusively used cells from the large-scale cryopreserved batch produced as part of this campaign by culturing the cells at scale before cryopreservation (90% FBS and 10% DMSO). This produced a cell bank of 190 × 1 ml cryovials containing 3 × 10^7 cells per vial.
On day 0, a single cryovial was recovered and the cells washed before being transferred to a T225 cm^2 flask. After a 7-day recovery Wolbachia infection level (quality control (QC)) was checked by SYTO®11 DNA staining of both the host cell nuclei and intracellular Wolbachia. The end-point read out from the Operetta® high content imaging system (Perkin Elmer) was the percentage of cells infected with Wolbachia. This was obtained from cytoplasm texture analysis by the associated Harmony® software. Cells with a >50% of the population infected with Wolbachia were classed as having a good Wolbachia level and therefore used for screening through addition of 2000 cells per well into assay ready 384-well plates containing the test compounds. […] Each plate included on-board controls; vehicle/DMSO (total/maximum Wolbachia signal) or doxycycline 5 µM (null/minimum Wolbachia signal), resulting in single shot screening of 352 compounds per plate for the primary screen. […] QC plates were also created including full columns of the following controls; DMSO (total/max), 5 μM doxycycline (null/min), as well as 50 nM doxycycline (reference/medium Wolbachia signal). Daily batches contained ~150 compound plates in addition to the QC plates. Each compound plate was foil sealed before incubation for 7 days at 26 °C, 95% humidity and atmospheric air.
After 7 days of drug incubation, the plates were loaded into the fully automated BioCel system which performed the following additions; fixation and DNA staining (1.8% formaldehyde + 0.6 µg/ml Hoechst 33342, 20 min), permeabilisation (80 μl of PBS + 0.25% Triton-X 100, 30 min), blocking (PBS + 6% BSA, 40 min), overnight incubation in the Wolbachia-specific anti-wBmPAL primary antibody[34] […]

Data set [2] is described as follows: LogD7.4. It counts as physicochemical. The following applies: pH 7.4. The source says: The DMPK data used for triaging compounds, including LogD7.4, aqueous solubility, plasma protein binding, microsome and hepatocyte clearance measurements, were generated using the standard AstraZeneca UK high-throughput platform[37],[38].
Data set [3] relates to THP-1 cells. The experiment in a line: Mammalian cell viability counter-screen (CellTiter-Blue). It counts as cell-based, human. The following applies: Homo sapiens, 48 h, read-out: HTS IC50 mammalian toxicity. Here is the method: The human monocytic THP-1 cell line (ATCC® TIB-202) used for mammalian cytotoxicity evaluation was routinely cultured in roller bottles. Growth media consisted of RPMI 1640 supplemented with 10% FBS and 2 mM L-glutamine. Cells were maintained at 37 °C with 95% humidity in 5% CO2 in a shaking incubator.
All compounds selected for secondary IC50 screen were tested in parallel for mammalian cell viability using the CellTiter-Blue® Cell Viability Assay. THP1 cells were removed from culture and plated at 1 × 10^4 cells/well (40 µl) into 384-well assay ready plates and incubated at 37 °C, 5% CO2 for 48 h at 95% humidity. After the addition of CellTiter-Blue Viability reagent (8 µl of a 1:6 dilution) the assay plates were incubated for a further 2 h before fluorescence detected using a PerkinElmer EnVision™ plate reader.

The subject of data set [4] is Wolbachia within Brugia malayi Mf. The experiment in a line: B. malayi microfilarial (Mf) in vitro anti-Wolbachia assay (wsp:gst qPCR). It counts as cell-based.
Where [5] appears, read: Brugia malayi, 144 h, B. malayi Mf, 6 days, read-out: Mf EC50.
Setting [6] is: category bounds in the picture of Fig. 4, read-out: Mf EC50 (category given in Fig. 4).

Like-named read-outs stand apart in the source and are kept apart here.

As to `Cc1nccc(N2CCC(C(=O)N(C)CCN(C)S(=O)(=O)c3ccc(Br)cc3)CC2)n1` [1A, N-(2-((4-bromo-N-methylphenyl)sulfonamido)ethyl)-N-methyl-1-(2-methylpyrimidin-4-yl)piperidine-4-carboxamide], the IC50 is 184 nM in data set [1] and > 30600 nM in data set [3]. In data set [2], this molecule registered a logD of 2.6. Further, the EC50 in data set [4] (setting [5]) is ~161 nM; in data set [4] (setting [6]), < 200 nM.
`CCc1ccc(CN2CCCC2c2nc(C(=O)N(C)C)cs2)s1` (stereo not drawn) [4A, 2-(1-((5-ethylthiophen-2-yl)methyl)pyrrolidin-2-yl)-N,N-dimethylthiazole-4-carboxamide]: the 50% inhibitory concentration (IC50) in data set [1] is 145 nM; in data set [3], > 30600 nM. For the same molecule, the pH-dependent lipophilicity (logD) in data set [2] stood at 3.2. In addition, in data set [4], the “Mf in vitro potency (in words)” value is given as “good”. For the same molecule, the EC50 in data set [4] (setting [5]) was ~219 nM; in data set [4] (setting [6]) it was 200 to 1000 nM.
In the case of `CC1COCCN1c1cc(OCc2ccccc2)nc(-c2nccn2C)n1` (stereo not drawn) [3A, 4-(6-(benzyloxy)-2-(1-methyl-1H-imidazol-2-yl)pyrimidin-4-yl)-3-methylmorpholine], the figures for the IC50 in data set [1] and in data set [3] were 968 nM and > 30600 nM, respectively. For the same molecule, the logD in data set [2] was found to be 3.3. Further, the EC50 is ~183 nM in data set [4] (setting [5]) and < 200 nM in data set [4] (setting [6]).
The corresponding values for `COc1ccc(CC(=O)Nc2[nH]nc(C)c2-c2ccccc2)c(Cl)c1` [2A, 2-(2-chloro-4-methoxyphenyl)-N-(3-methyl-4-phenyl-1H-pyrazol-5-yl)acetamide] are 2390 nM, > 30600 nM, 3.1, 164 nM and < 200 nM.
Turning to `Cc1nc(C(=O)NC(C)c2ccc(F)cc2)c(NC(=O)Cc2ccccc2)[nH]1` (stereo not drawn) [5A, N-(1-(4-fluorophenyl)ethyl)-2-methyl-5-(2-phenylacetamido)-1H-imidazole-4-carboxamide], the 50% inhibitory concentration (IC50) in data set [1] was 594 nM; in data set [3], > 30600 nM. Moreover, the logD in data set [2] worked out at 3.5. The “Mf in vitro potency (in words)” value in data set [4] was “comparatively good”. For the same molecule, the values for the EC50 in data set [4] (setting [5]) and in data set [4] (setting [6]) were ~271 nM and 200 to 1000 nM, respectively.
